According to US12539320B2, “Composition for improving eyesight” (South China Agricultural University, priority 2022, dated 2026):

Columns and labels:
Format in all cases: in vivo, BALB/c mice
Settings in all cases: 5 μL dripped into conjunctival sac 2 times a day for 15 days, mean (SD in next cell)
[1] = test system: conjunctival epithelial mucin MUC5AC; assay: Expression amount of conjunctival epithelial mucin MUC5AC by Western Blot in xerophthalmia mice
Protocol: (§1) 1.1 Test animals: 100 SPF-grade 8-week-old healthy BALB/c mice, each weighed 18-22 g, were selected, and anterior segment and fundus of the eyes were not abnormal.
(§2) 1.2. Establishment of animal model: 90 mice were selected to induce a model of xerophthalmia. 5 μL of 2 g/L of a benzalkonium chloride solution was dripped into conjunctival sac of the eyes of 90 mice for 2 times a day and continuously for 15 days. After the modeling was success, the mice were randomly divided into 9 groups with 10 mice in each group.
(§3) 1.3. […] After 15 days, the secretion amount of tear, breakup time of a tear film, and the expression amount of conjunctival epithelial mucin MUC5AC were measured for the mice in each group.
(3) Measurement of expression amount of conjunctival epithelial mucin MUC5AC: an expression level of the mucin MUC5AC in the conjunctival epithelial cells of the mouse was detected by Western Blot.

mice with xerophthalmia [2] = assay: Measurement of breakup time of tear film (fluorescein sodium, slit lamp) in xerophthalmia mice
Protocol: as §1, §2, §3
(2) Measurement of breakup time of tear film: 1 μL of 10 g/L of a fluorescein sodium solution was dripped into the conjunctival sac of the mouse, after the mouse blinked, the eyes were artificially kept in a normal opening state, and time for a tear film to generate the 1st black spot (breaking point) was observed and recorded under a cobalt blue light of a slit lamp.

mice with xerophthalmia [3] = assay: Measurement of secretion amount of tear (phenol red cotton thread) in benzalkonium chloride-induced xerophthalmia mice
Protocol: as §1, §2, §3
(1) Measurement of secretion amount of tear: a phenol red cotton thread was placed in the conjunctival sac of the mouse at about ⅓ outside for 1 min and a length of a red part of the phenol red cotton thread was measured.

Substance: lutein ester [Comparative example 3]
- Expression amount of conjunctival epithelial mucin MUC5AC [1]: 0.38 ng/mg
- Breakup time of tear film (mice with xerophthalmia [2]): 36.72 s
- Secretion amount of tear (mice with xerophthalmia [3]): 6.46 mm
